Laboratory results from the supplement of paper PMC10307832.

Assays:
Test in all cases: relative viability (nuclei count vs DMSO), 5 days (fraction); higher = more cells survive
[1] = compound: CNC(=O)c1ccccc1Sc1ccc2c(/C=C/c3ccccn3)n[nH]c2c1 [Axitinib] + Cc1nc(Nc2ncc(C(=O)Nc3c(C)cccc3Cl)s2)cc(N2CCN(CCO)CC2)n1 [Dasatinib] (partner 0.075 µM)
In short: (§1)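 After 5 days of treatment, lung cancer cells in 1536-well plates were fixed and stained in a single step (final 0.05% Triton X-100, 1% formaldehyde, 1 ug/ml Hoechst) and their nuclei counted on 4× images. Treatment had been applied by pin tool the day after seeding as one drug alone or as a fixed anchor-drug dose with five library-drug doses (not always all listed) in √10 steps. Relative viability is the nuclei count of treated wells divided by that of vehicle wells, and values are medians of duplicate plates.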

[2] = compound: CNC(=O)c1ccccc1Sc1ccc2c(/C=C/c3ccccn3)n[nH]c2c1 [Axitinib] + C[C@@H](Oc1cc(-c2cnn(C3CCNCC3)c2)cnc1N)c1c(Cl)ccc(F)c1Cl [Crizotinib] (partner 1 µM)
In short: as §1

[3] = compound: CNC(=O)c1ccccc1Sc1ccc2c(/C=C/c3ccccn3)n[nH]c2c1 [Axitinib] + CC(C)C[C@H](NC(=O)[C@H](Cc1ccccc1)NC(=O)c1cnccn1)B(O)O [Bortezomib] (partner 0.002 µM)
In short: as §1

[4] = compound: CC1=CC=C(C=C1)C(=O)CN2C3=C(CCCC3)SC2=N [Pifithrin_alpha] + CC(C)C[C@H](NC(=O)[C@H](Cc1ccccc1)NC(=O)c1cnccn1)B(O)O [Bortezomib] (partner 0.002 µM)
In short: as §1

Row | Cell Line | relative viability ([1]; first compound 0.005 µM) | relative viability ([1]; first compound 0.01581 µM) | relative viability ([1]; first compound 0.05 µM) | relative viability ([1]; first compound 0.1581 µM) | relative viability ([1]; first compound 0.5 µM) | relative viability ([2]; first compound 0.005 µM) | relative viability ([2]; first compound 0.01581 µM) | relative viability ([2]; first compound 0.05 µM) | relative viability ([2]; first compound 0.1581 µM) | relative viability ([2]; first compound 0.5 µM) | relative viability ([3]; first compound 0.005 µM) | relative viability ([3]; first compound 0.01581 µM) | relative viability ([3]; first compound 0.05 µM) | relative viability ([3]; first compound 0.1581 µM) | relative viability ([3]; first compound 0.5 µM) | relative viability ([4]; first compound 3.162 µM) | relative viability ([4]; first compound 10 µM) | relative viability ([4]; first compound 31.62 µM) | relative viability ([4]; first compound 100 µM) | relative viability ([4]; first compound 1 µM)
1 | EPLC-272H | 0.342 | 0.337 | 0.372 | 0.353 | 0.241 | 0.893 | 0.989 | 0.76 | 0.986 | 0.937 | 0.986 | 0.804 | 0.857 | 0.994 | 0.892 | 0.944 | 0.895 | 0.627 | 1.11 | 
2 | NCI-H441 | 0.592 | 0.722 | 0.595 | 0.575 | 0.604 | 0.69 | 0.797 | 0.654 | 0.794 | 0.853 | 0.626 | 0.54 | 0.444 | 0.465 | 0.443 | 0.821 | 0.442 | 0.448 | 0.503 | 0.245
3 | NCI-H23 | 1.04 | 0.872 | 0.933 | 0.778 | 0.803 | 0.532 | 0.529 | 0.619 | 0.436 | 0.656 | 1.06 | 1.09 | 1 | 1.03 | 1.02 | 0.978 | 1.06 | 0.61 | 0.875 | 0.917
4 | NCI-H647 | 0.206 | 0.182 | 0.194 | 0.18 | 0.126 | 1.12 | 1.01 | 1.04 | 1.09 | 1.23 | 1.04 | 1.1 | 0.94 | 1.01 | 1.08 | 0.966 | 0.706 |  | 0.736 | 0.992
5 | LXF-289 | 0.242 | 0.208 | 0.285 | 0.304 | 0.271 | 0.872 | 0.799 | 0.781 | 0.781 | 0.841 | 0.977 | 0.918 | 0.974 | 0.974 | 1 | 1.01 | 1.02 | 0.813 | 0.962 | 1.01
6 | NCI-H596 | 0.519 | 0.477 | 0.653 | 0.569 | 0.507 | 1.03 | 1.06 | 1.06 | 0.993 | 0.495 | 0.859 | 0.887 | 1.08 | 1.11 | 0.995 | 1.1 | 1.23 | 1.03 | 1.06 | 0.969
